In patent US20260193668A1, “NOVEL PEPTIDES AND USE THEREOF FOR MODULATING PROTEIN ACCUMULATION” (UNIVERSITE TOULOUSE III - PAUL SABATIER, priority 2022, published 2026):

Experiments:
soybean plants = assay: Heat stress resistance of soybean plants; assay type: in vivo, Glycine max; conditions: 45° C. for 24 h
Description: (§1) (a, b) Relative area of lesions on S. lycopersicum leaves infected with B. cinerea and treated with an irrelevant peptide or cPEPjar1. (c, d) Heat stress resistance of soybean plants treated with an irrelevant peptide or cPEPsp101. (e, f) Growth (plant height) of soybean plants treated with an irrelevant peptide or a mixture of cPEPs (targeting MRB1, SHY2 and SGR1). (g, h) Leaf area of B. vulgaris plants treated with an irrelevant peptide or a mixture of cPEPs (targeting EIN2, BR11, BAK1 and WUS). (i, j) Leaf surface of A. hypochondriacus plants treated with an irrelevant peptide or a mixture of cPEPs (targeting EIN2, BR11, BAK1 and WUS).
N. benthamiana plants were treated by spraying the leaves 24 h before harvesting. For Luc assays, 100 μL of MS/2 liquid medium containing the peptides was added to each well. 5 μL of luciferin was added and luciferase activity was read 30 min later using a spectrophotometer. All other assays were performed by spraying or watering the plants. To quantify the protein level induced by cPEPs in Arabidopsis, rosettes were sprayed daily with 100 μM of peptide or its control for 5 days. Leaves were harvested 6 h after the last treatment for western blot analysis. […] Chlorophyll content was measured using the SPAD chlorophylometer (Konica Minolta). Leaf area was measured using ImageJ software. […]

luciferase mRNA = assay: Relative expression of the luciferase transgene by RT-qPCR; assay type: in vivo, Arabidopsis thaliana; conditions: A. thaliana expressing LUC treated with synthetic peptide
Description: (§2) Analysis of luciferase expression in A. thaliana constitutively expressing the LUC transgene. (a) Agarose gel after PCR amplification of RNA obtained by immunoprecipitation using anti-HA magnetic beads, followed by RT-PCR, on plants treated with the indicated peptide (SC-HA: Scrambled cPEPluc-HA; Luc-HA: cPEPluc-HA). (b) Relative expression of the luciferase transgene in plants treated with the indicated peptide, quantified by RT-qPCR. (c-e) Relative quantification of LUC in plants treated with the indicated peptide. (f, g) Ratio between induction and quantification of LUC in plants treated with cPEPluc compared to plants treated with Scrambled cPEPluc, using different peptide concentrations (f) or taken at different time points (g). (h) Transcriptomic analysis of plants treated with cPEPluc-HA compared to plants treated with Scrambled cPEPluc-HA. (i) Proteomic analysis of plants treated with cPEPluc-HA compared to plants treated with Scrambled cPEPluc-HA. Protein expression was analysed by Western blots and quantified using ImageJ.
Quantification of mRNAs was performed by qRT-PCR using appropriate primer pairs selected from the sequences: SEQ ID NOs: 367 to 374. Expression levels for the controls were set at 100. The primers used for the A. euteiches assays are described in Camborde et al (New Phytol. 233:2232-2248. 2022).

luciferase [1] = assay: Luciferase activity in A. thaliana constitutively expressing the LUC transgene; assay type: in vivo, Arabidopsis thaliana
Description: as §2
Medicago truncatula Gaertn cv. Jemalong genotype A17 were grown on Long Aston medium as described in Delaux P M et al (New Phytol. 2013 July; 199(1):59-65). Arabidopsis thaliana Col-0 plants were grown in soil until 4 weeks of age in a growth chamber (22/20° C., 16 h/8 h L/D, RH 80%, ~75 μmol·m^−2 s^−1). Barbarea vulgaris seeds were stratified for 24 h at 4° C. before being grown in pots in a growth chamber. Seeds of Amaranthus hypochondriacus, Glycine max and Solanum lycopersicum were sown in pots and grown in a growth chamber. […]
N. benthamiana plants were treated by spraying the leaves 24 h before harvesting. […] 5 μL of luciferin was added and luciferase activity was read 30 min later using a spectrophotometer. […] To quantify the protein level induced by cPEPs in Arabidopsis, rosettes were sprayed daily with 100 μM of peptide or its control for 5 days. […] Chlorophyll content was measured using the SPAD chlorophylometer (Konica Minolta). Leaf area was measured using ImageJ software. […]

luciferase [2] = assay: In vitro transcription/translation of luciferase (wheat germ system); assay type: biochemical; conditions: 60 min
Description: (§3) (a) Analysis of luciferase activity in A. thaliana plants constitutively expressing the LUC transgene and treated with Scrambled cPEPluc or cPEPluc, with or without cycloheximide. (b) Analysis of luciferase activity after in vitro transcription/translation of luciferase expressed with cPEPluc or Scrambled cPEPluc.
The TnT® SP6 high-throughput wheat germ protein expression system (Promega) was used according to the manufacturer's instructions. The LUC sequence was amplified using the GoTaq Polymerase® (Promega), cPEPs or their corresponding Scramble versions were added just prior to the start of the reaction. The reaction was stopped after 60 min, after which LUC activity was measured using a plate spectrophotometer (Perkin-Elmer Victor Nivo).

luciferase [3] = assay: Luciferase activity in A. thaliana LUC plants with or without cycloheximide; assay type: in vivo, Arabidopsis thaliana; conditions: cycloheximide 200 μg·mL^−1, 24 h
Description: as §3
Arabidopsis thaliana plants comprising the LUC construct were treated by infiltrating the leaves with a solution of peptide with or without cycloheximide (200 μg·mL^−1) in MS/2 medium, 24 h before harvesting for the LUC assay.

Botrytis cinerea = assay: S. lycopersicum leaves infected with B. cinerea; assay type: in vivo; conditions: tomato
Description: as §1
Wild-type or mutant A. thaliana leaves were sprayed daily with 100 μM of peptide or 100 μM of the corresponding scramble version for 3 days. Six hours after the last treatment, five mature leaves per plant were inoculated with a 5 μL droplet of 2.5×10^5 spores/mL of Botrytis cinerea strain B05.10 diluted in 100 μM of peptide or its corresponding scramble version. After inoculation, plants were maintained at 100% relative humidity. Then, a 2 μL droplet of 100 μM of peptide or 100 μM of the corresponding scramble version was deposited daily on B. cinerea-infected leaves for 3 days (until symptoms appeared). Leaves were removed from the plants to determine lesion areas using the ImageJ programme. […]

[4] = 96-well assay, cPEPluc compared to Scrambled cPEPluc

cPEPhsp101 (EEYRKYVEKD; cPEPhsp101) [SEQ ID NO: 408, cPEP targeting the homolog of HSP101 in soybean]
tolerance to heat stress (soybean plants): increased

cPEPluc: complementary peptide of 10 amino acids corresponding to a 10 amino acid fragment of the luciferase protein (KRYGLNTNHR; cPEPluc)
luciferase mRNA abundance (qPCR) (luciferase mRNA): no effect | optimum concentration of cPEP for luciferase induction (luciferase [1]; [4]): 50 µM | treatment time showing the maximum effect of cPEP (luciferase [1]; [4]): 24 h | luciferase activity (luciferase [1]; A. thaliana LUC seedlings, exogenous peptide treatment, compared with water or non-luciferase-specific peptides): increased | LUC activity in vitro (luciferase [2]): increased | effect of cPEPluc on luciferase activity in the presence of CHX (luciferase [3]): inhibited

cPEPjar1: cPEP targeting the tomato JAR1 protein (AFRTFEQVWE; cPEpjar1)
plant's resistance to B. cinerea (Botrytis cinerea): improved
